This note sets out measurements from PMC5569033 (2017).

For assay [1], the system named is Tyr1M1 (RNA, aptamer) GGAUGUAACUGAAUGAAAUGGUGAAGGACGGGUCCAGCCCUUGGCAGUCAACUCGUGCGAUCGUGAAAACGGGGCAAGAUGGCCUUACAGCGGUCAAUACGGGGGUCAUCAGAUAGGGAGGCCAGGAUAUGUUGAGUAGAGUGUGAGCUCCGUAACUAGUUACAUC
Briefly: Spinach sensor fluorescence turn-on. Conditions: 125 mM KCl, 5 mM MgCl2; 50 mM Tris-HCl pH 7.5; 2 μM DFHBI or DFHBI-1T; 1 mM ligand; 10 μM RNA.

For assay [2] the test system is unchanged. Put plainly: dye fluorescence in droplets. Conditions: 200 mM KCl, 10 mM NaCl, 10 mM MgCl2; 100 mM Tris pH 7.5; 30 μM RNA, 3 μM dye; salmon sperm DNA; with secreted tyrosine.
Assay [3] has as its system Spinach2-Streptavidin aptamer (Streptavidin (SA)) (RNA, aptamer) GAUGUAACUGAAUGAAAUGGUGAAGGACGGGUCCACGACCGACCAGAAUCAUGCAAGUGCGUAAGAUAGUCGCGGGCCGGGGUUGUUGAGUAGAGUGUGAGCUCCGUAACUAGUUACAUC
Put plainly: dye fluorescence, plate reader. Conditions: 200 mM KCl, 10 mM NaCl, 1 mM MgCl2; 100 mM Tris pH 7.5, 25 °C, 14 h; 10 μM RNA, 2 μM dye; with streptavidin.

Regarding `N[C@@H](Cc1ccc(O)cc1)C(=O)O`, in assay [1], the binding result was “yes”.
On to `CC1=N/C(=C\c2cc(F)c(O)c(F)c2)C(=O)N1CC(F)(F)F`, for which the binding result in assay [2] and in assay [3] was “yes” in each case.
